In US20070295251A1, “EPSP SYNTHASES: COMPOSITIONS AND METHODS OF USE” (Athenix Corporation, priority 2006, published 2007):

Key:
[1] = molecular target: GRG1 EPSP synthase variant GRG1(EVO1), SEQ ID NO:28 (Q-loop core position 10 M, 12 L, 16 F) (Pseudomonas putida, UniProt Q683S1, I93M/I99F/M95L); assay: EPSP synthase kinetics (AMPLEX Red fluorescence assay); type: biochemical; details: in words, relative to GRG1
Experimental: (§3) Extracts were typically incubated with all assay components except shikimate-3-phosphate and AMPLEX™ Red for 5 minutes at room temperature, and assays were started by adding shikimate-3-phosphate and AMPLEX® Red.
(§4) Following full determination of kinetic parameters, the kinetic constants were determined as follows, adjusting for the quantity of protein determined by either antibody dot-blot analysis as described herein, or by Bradford Assay, as known in the art.

[2] = molecular target: GRG1 EPSP synthase variant EVO4, SEQ ID NO:43 (Q-loop core position 2 N, 10 I, 14 A, 16 I) (Pseudomonas putida, UniProt Q683S1, D85N/T97A); assay: as above; type: biochemical; details: in words
Experimental: as §3, §4

[3] = molecular target: GRG1 EPSP synthase variant EVO3, SEQ ID NO:37 (Q-loop core position 2 K, 10 G, 14 P, 16 L) (Pseudomonas putida, UniProt Q683S1, D85K/I93G/I99L/T97P); assay: as above; type: biochemical; details: in words
Experimental: as §3, §4

[4] = tested on: maize plants expressing GRG1(EVO6); assay: Glyphosate spray of transgenic maize plants; type: in vivo; details: 14 mM glyphosate spray
Text: (§1) The grg1 (evo5) gene and grg1 (evo6) genes were each cloned into a plant expression vector suitable for Agrobacterium-mediated transformation, such vector containing at least (1) a promoter capable of expression in a plant cell, (2) a chloroplast peptide leader coding sequence, (3) a transcriptional terminator. The resulting clones, pAX4014 and pAX4032 respectively, were transferred to Agrobacterium as known in the art and described herein, and the resulting Agrobacterium strain used to develop transgenic maize callus and ultimately transgenic maize plants.
(§2) To transgenic plants were sprayed with glyphosate formulations of 14 mM glyphosate after adaptation to soil, and the resistance to the herbicide was scored after two weeks relative to non-transgenic controls.

[5] = tested on: maize plants expressing GRG1(EVO5); assay: Glyphosate spray of transgenic maize plants; type: in vivo; details: 14 mM glyphosate spray
Text: as §1, §2

[6] = molecular target: GRG1 EPSP synthase variant EVO2, SEQ ID NO:5 (clone L1-C; Q-loop core position 12 A) (Pseudomonas putida, UniProt Q683S1, M95A); assay: EPSP synthase kinetics (AMPLEX Red fluorescence assay); type: biochemical; details: in words, relative to GRG1
Experimental: as §3, §4

[7] = tested on: BL21*DE3 competent E. coli cells; assay: Screening for glyphosate resistance on plates (growth on M63+ agar with glyphosate); type: cell-based; details: kanamycin, IPTG, glyphosate concentration as in value
Experimental: Library ligations were transformed into BL21*DE3 competent E. coli cells (Invitrogen). The transformations were performed according to the manufacturer's instructions with the following modifications. After incubation for 1 hour at 37° C. in SOC medium, the cells were sedimented by centrifugation (5 minutes, 1000×g, 4° C.). The cells were washed with 1 ml M63+, centrifuged again, and the supernatant decanted. The cells were washed a second time with 1 ml M63+ and resuspended in 200 ul M63+.
For selection of mutant GRG1 enzymes conferring glyphosate resistance in E. coli, the cells were plated onto M63+ agar medium plates containing 50 mM glyphosate, 0.05 mM IPTG (isopropyl-beta-D-thiogalactopyranoside), and 50 ug/ml kanamycin. M63+ medium contains 100 mM KH2PO4, 15 mM (NH4)2SO4, 50 μM CaCl2, 1 μM FeSO4, 50 μM MgCl2, 55 mM glucose, 25 mg/liter L-proline, 10 mg/liter thiamine HCl, sufficient NaOH to adjust the pH to 7.0, and 15 g/liter agar. The plates were incubated for 36 hours at 37° C.

EPSP synthase = tested on: EPSP synthase
Experimental: For any one glyphosate concentration, EPSP synthase activity was measured as a function of a broad range of PEP concentrations. The data were fit to the Michaelis-Menten equation using […]® software (Synergy Software) and used to determine the Km (Km apparent) of the EPSP synthase at that glyphosate concentration.

[8] = Experimental: DNA from grg1 (evo5) was mutagenized by PCR as known in the art, and cloned into pRSF1b (Invitrogen), and a library of mutagenized clones identified by virtue of growth on 50 mM glyphosate.

O=C(O)CNCP(=O)(O)O [glyphosate, N-phosphonomethylglycine]
Ki for glyphosate [1]: improved
Ki for glyphosate ([2]; relative to GRG1): improved
Ki for glyphosate ([3]; relative to GRG1): improved
Seed Set [4]: YES
Survival at 2 weeks post-spray [4]: YES
Chlorosis ([4]; two weeks): NONE
Stunting ([4]; two weeks): NONE
Seed Set [5]: YES
Survival at 2 weeks post-spray [5]: YES
Chlorosis ([5]; two weeks): NONE
Stunting ([5]; two weeks): NONE
Ki for glyphosate [6]: improved

GRG1(EVO8): variant after mutagenesis of grg1 (evo6) in the Q-loop region (SEQ ID NO:65) (ITSEGVKPVAPFIKCGESGLSGRMFPPIVALSK; GRG1 variant - GRG1(4S-60))
growth on glyphosate plates (glyphosate resistance in E. coli) [7]: glyphosate resistant
kinetic properties / parameters (in words) (EPSP synthase): further improved kinetic properties over GRG1(EVO6)

C=C(OP(=O)(O)O)C(=O)O [PEP, phosphoenolpyruvic acid]
Km for PEP [2]: reasonable, though somewhat elevated
Km for PEP ([3]; vs GRG1): virtually identical to GRG1

GRG1(EVO7): variant after mutagenesis of grg1 (evo6) in the Q-loop region (SEQ ID NO:64) (ITSEGVKPVAPFIKCGESGLSVRAFTPIVALSK; GRG1 variant - GRG1(4S-39))
growth on glyphosate plates (glyphosate resistance in E. coli) [7]: glyphosate resistant
kinetic properties / parameters (in words) (EPSP synthase): further improved kinetic properties over GRG1(EVO6)

B1: GRG1(EVO5): GRG1 Q-loop variant from Library 4 (SEQ ID NO:56) (protein)
chain: MKVTIQPGDLTGIIQSPASKSSMQRACAAALVAKGISEIINPGHSNDDKAARDIVSRLGARLEDQPDGSLQITSEGVKPVAPFIECGESGLSSRIFTPLVALSKEEVTIKGSGSLVTRPMDFFDEILPHLGVKVKSNQGKLPLVIQGPLKPADVTVDGSLSSQFLTGLLLAYAAADASDVAIKVTNLKSRPYIDLTLDVMKRFGLKTPENRNYEEFYFKAGNVYDETKMQRYTVEGDWSGGAFLLVAGAIAGPITVRGLDIASTQADKAIVQALMSANAGIAIDAKEIKLHPADLNAFEFDATDCPDLFPPLVALASYCKGETKIKGVSRLAHKESDRGLTLQDEFGKMGVEIHLEGDLMRVIGGKGVKGAEVSSRHDHRIAMACAVAALKAVGETTIEHAEAVNKSYPDFYSDLKQLGGVVSLNHQFNFS
modifications: GRG1 variant - GRG1(EVO5)
Km / affinity for PEP (in words) (EPSP synthase): good affinity for PEP
glyphosate resistance (in words, kinetic analysis) (EPSP synthase; relative to GRG1): improved glyphosate resistance

B2: GRG1(EVO6): GRG1(EVO5) with N186 to K change (SEQ ID NO:57) (protein)
chain: MKVTIQPGDLTGIIQSPASKSSMQRACAAALVAKGISEIINPGHSNDDKAARDIVSRLGARLEDQPDGSLQITSEGVKPVAPFIECGESGLSSRIFTPLVALSKEEVTIKGSGSLVTRPMDFFDEILPHLGVKVKSNQGKLPLVIQGPLKPADVTVDGSLSSQFLTGLLLAYAAADASDVAIKVTKLKSRPYIDLTLDVMKRFGLKTPENRNYEEFYFKAGNVYDETKMQRYTVEGDWSGGAFLLVAGAIAGPITVRGLDIASTQADKAIVQALMSANAGIAIDAKEIKLHPADLNAFEFDATDCPDLFPPLVALASYCKGETKIKGVSRLAHKESDRGLTLQDEFGKMGVEIHLEGDLMRVIGGKGVKGAEVSSRHDHRIAMACAVAALKAVGETTIEHAEAVNKSYPDFYSDLKQLGGVVSLNHQFNFS
modifications: GRG1 variant - GRG1(EVO6)
soluble protein [8]: substantial increase in soluble protein

B3: GRG1(5.2.B6): GRG1(EVO5) with V351 to A change (SEQ ID NO:58) (protein)
chain: MKVTIQPGDLTGIIQSPASKSSMQRACAAALVAKGISEIINPGHSNDDKAARDIVSRLGARLEDQPDGSLQITSEGVKPVAPFIECGESGLSSRLFTPLVALSKEEVTIKGSGSLVTRPMDFFDEILPHLGVKVKSNQGKLPLVIQGPLKPADVTVDGSLSSQFLTGLLLAYAAADASDVAIKVTKLKSRPYIDLTLDVMKRFGLKTPENRNYEEFYFKAGNVYDETKMQRYTVEGDWSGGAFLLVAGAIAGPITVRGLDIASTQADKAIVQALMSANAGIAIDAKEIKLHPADLNAFEFDATDCPDLFPPLVALASYCKGETKIKGVSRLAHKESDRGLTLQDEFGKMGVEIHLEGDLMRVIGGKGVKGAEVSSRHDHRIAMACAVAALKAVGETTIEHAEAVNKSYPDFYSDLKQLGGVVSLNHQFNFS
modifications: GRG1 variant - GRG1(EVO7)
soluble protein [8]: substantial increase in soluble protein
